The target in assay [1] is T1, Lysine-specific demethylase 4A (Homo sapiens, UniProt O75164).
T1 sequence (O75164 whole entry): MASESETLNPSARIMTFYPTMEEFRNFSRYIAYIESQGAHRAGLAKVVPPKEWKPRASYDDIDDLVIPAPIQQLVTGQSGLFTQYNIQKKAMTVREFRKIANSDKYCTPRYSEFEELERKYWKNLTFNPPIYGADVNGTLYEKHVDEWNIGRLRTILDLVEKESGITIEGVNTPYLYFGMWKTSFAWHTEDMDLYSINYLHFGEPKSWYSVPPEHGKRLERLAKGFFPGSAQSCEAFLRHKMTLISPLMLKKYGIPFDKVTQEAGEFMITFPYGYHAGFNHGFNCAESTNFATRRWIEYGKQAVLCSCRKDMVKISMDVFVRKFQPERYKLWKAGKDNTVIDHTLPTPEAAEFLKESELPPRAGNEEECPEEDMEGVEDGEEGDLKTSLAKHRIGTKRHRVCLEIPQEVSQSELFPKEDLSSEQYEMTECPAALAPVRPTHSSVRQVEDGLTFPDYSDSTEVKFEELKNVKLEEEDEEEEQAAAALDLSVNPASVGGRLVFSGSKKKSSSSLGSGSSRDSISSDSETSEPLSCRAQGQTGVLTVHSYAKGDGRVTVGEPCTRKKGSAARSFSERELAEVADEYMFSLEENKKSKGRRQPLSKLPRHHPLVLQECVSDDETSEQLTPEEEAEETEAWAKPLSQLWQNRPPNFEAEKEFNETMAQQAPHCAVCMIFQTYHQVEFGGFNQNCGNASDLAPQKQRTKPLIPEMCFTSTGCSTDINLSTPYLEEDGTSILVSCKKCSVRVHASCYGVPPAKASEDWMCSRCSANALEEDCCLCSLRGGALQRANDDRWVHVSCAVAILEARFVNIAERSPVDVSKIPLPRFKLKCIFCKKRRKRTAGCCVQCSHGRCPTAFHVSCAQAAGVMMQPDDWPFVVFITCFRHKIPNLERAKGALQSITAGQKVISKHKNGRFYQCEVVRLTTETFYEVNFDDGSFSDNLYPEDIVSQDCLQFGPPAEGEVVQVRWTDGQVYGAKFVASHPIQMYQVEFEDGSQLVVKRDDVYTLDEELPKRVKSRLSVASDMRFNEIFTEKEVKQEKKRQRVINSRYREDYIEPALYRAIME
Briefly: Inhibition of KDM4A (1 to 350 residues)(unknown origin) by Alphalisa assay. (Bead proximity is the source of the signal in Alpha formats.)

The target of assay [2] is Lysine-specific demethylase 5B (Homo sapiens, UniProt Q9UGL1). Put plainly: Inhibition of KDM5B (1 to 809 residues)(unknown origin) by Alphalisa assay.
The target of assay [3] is Lysine-specific demethylase 5A (Homo sapiens, UniProt P29375). Briefly: Inhibition of KDM5A (1 to 1090 residues)(unknown origin) by Alphalisa assay.
Assay [4] deals with Lysine-specific demethylase 6A (Homo sapiens, UniProt O15550). Put plainly: Inhibition of KDM6A (919 to 1401 residues)(unknown origin) by Alphalisa assay.
The target of assay [5] is T2, Lysine-specific demethylase 4B (Homo sapiens, UniProt O94953).
T2 sequence (O94953 whole entry): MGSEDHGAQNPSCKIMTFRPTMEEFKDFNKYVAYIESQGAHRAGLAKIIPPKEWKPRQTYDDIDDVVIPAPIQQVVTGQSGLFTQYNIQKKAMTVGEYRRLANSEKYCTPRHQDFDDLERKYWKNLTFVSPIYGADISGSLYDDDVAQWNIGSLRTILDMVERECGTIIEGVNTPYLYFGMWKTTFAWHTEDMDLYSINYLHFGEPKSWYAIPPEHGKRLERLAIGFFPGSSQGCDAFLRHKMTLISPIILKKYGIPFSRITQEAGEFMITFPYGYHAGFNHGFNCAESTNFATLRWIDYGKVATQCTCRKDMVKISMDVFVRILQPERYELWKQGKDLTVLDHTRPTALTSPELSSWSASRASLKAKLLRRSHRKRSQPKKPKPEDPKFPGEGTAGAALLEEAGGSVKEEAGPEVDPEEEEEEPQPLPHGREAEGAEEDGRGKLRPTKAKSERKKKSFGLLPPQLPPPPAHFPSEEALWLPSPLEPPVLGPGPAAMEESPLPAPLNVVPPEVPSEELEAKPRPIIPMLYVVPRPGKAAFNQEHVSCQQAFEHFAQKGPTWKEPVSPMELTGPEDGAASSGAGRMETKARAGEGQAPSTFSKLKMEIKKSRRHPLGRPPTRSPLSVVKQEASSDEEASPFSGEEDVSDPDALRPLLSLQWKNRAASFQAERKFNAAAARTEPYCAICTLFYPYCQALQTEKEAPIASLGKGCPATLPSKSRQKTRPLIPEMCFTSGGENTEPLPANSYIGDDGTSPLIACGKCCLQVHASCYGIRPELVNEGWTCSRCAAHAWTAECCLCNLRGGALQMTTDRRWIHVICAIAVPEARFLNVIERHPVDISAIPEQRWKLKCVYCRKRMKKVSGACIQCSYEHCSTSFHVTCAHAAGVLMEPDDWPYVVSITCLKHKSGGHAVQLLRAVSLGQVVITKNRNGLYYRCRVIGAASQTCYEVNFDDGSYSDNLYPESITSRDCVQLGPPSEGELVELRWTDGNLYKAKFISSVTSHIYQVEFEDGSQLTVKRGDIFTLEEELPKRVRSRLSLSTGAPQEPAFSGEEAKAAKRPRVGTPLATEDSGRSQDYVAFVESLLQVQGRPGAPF
Briefly: Inhibition of KDM4B (2 to 500 residues)(unknown origin) by Alphalisa assay.

Assay [6] addresses Lysine-specific demethylase 3B (Homo sapiens, UniProt Q7LBC6). Put plainly: Inhibition of KDM3B (842 to 1761 residues)(unknown origin) by Alphalisa assay.
The nature of assay [7]: Inhibition of epitope-tagged KDM5B (1 to 752 residues)(unknown origin) transfected in human U2OS cells using H3K4me2 peptide as substrate. It counts as cell-based.

IC50 data for 2 molecules are collected here from ChEMBL document CHEMBL5647690, “Inhibition of demethylases by GSK-J1/J4” (Nature, 2014).

Where only a bound is given, the exact number is not on record here.

Lysine-specific demethylase 5B, sequence (Q9UGL1 whole entry, the tested form may be a part): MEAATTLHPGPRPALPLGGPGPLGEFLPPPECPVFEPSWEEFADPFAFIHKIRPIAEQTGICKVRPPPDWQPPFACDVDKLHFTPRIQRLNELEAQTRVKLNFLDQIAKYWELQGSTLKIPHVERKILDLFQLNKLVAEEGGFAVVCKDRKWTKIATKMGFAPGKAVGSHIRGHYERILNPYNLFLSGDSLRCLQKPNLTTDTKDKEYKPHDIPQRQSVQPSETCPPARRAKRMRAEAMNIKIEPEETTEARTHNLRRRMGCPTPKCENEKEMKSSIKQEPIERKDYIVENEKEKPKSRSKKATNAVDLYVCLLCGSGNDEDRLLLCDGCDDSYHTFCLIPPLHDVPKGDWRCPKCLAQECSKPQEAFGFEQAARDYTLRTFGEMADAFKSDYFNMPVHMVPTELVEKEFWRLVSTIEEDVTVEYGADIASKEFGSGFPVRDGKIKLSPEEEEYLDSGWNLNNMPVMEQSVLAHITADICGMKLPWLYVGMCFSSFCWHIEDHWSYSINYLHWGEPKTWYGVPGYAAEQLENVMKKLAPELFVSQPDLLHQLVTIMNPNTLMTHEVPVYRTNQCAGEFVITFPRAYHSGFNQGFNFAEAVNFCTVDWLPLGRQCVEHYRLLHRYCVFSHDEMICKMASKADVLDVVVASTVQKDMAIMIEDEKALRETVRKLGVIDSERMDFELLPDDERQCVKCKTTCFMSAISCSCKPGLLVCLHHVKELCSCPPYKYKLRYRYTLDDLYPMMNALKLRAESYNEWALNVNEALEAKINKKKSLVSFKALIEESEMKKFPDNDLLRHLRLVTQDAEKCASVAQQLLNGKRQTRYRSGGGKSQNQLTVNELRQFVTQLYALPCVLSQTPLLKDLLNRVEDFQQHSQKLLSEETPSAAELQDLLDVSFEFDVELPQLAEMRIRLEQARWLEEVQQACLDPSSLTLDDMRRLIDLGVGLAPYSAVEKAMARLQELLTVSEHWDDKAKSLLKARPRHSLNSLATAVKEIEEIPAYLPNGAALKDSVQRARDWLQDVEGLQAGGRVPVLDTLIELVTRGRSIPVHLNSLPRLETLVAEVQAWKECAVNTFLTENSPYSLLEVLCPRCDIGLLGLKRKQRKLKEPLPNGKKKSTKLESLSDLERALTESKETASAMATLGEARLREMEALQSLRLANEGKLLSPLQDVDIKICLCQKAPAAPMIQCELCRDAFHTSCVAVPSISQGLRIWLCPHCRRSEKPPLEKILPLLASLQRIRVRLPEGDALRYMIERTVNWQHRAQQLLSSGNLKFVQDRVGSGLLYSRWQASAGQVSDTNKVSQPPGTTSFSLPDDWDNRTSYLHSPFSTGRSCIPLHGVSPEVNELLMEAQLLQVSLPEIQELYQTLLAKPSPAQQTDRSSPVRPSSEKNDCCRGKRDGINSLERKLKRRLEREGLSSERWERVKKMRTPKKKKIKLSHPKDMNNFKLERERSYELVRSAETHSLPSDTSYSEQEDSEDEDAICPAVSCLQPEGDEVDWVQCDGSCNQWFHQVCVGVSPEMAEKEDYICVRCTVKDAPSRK
Lysine-specific demethylase 3B, sequence (Q7LBC6 whole entry, the tested form may be a part): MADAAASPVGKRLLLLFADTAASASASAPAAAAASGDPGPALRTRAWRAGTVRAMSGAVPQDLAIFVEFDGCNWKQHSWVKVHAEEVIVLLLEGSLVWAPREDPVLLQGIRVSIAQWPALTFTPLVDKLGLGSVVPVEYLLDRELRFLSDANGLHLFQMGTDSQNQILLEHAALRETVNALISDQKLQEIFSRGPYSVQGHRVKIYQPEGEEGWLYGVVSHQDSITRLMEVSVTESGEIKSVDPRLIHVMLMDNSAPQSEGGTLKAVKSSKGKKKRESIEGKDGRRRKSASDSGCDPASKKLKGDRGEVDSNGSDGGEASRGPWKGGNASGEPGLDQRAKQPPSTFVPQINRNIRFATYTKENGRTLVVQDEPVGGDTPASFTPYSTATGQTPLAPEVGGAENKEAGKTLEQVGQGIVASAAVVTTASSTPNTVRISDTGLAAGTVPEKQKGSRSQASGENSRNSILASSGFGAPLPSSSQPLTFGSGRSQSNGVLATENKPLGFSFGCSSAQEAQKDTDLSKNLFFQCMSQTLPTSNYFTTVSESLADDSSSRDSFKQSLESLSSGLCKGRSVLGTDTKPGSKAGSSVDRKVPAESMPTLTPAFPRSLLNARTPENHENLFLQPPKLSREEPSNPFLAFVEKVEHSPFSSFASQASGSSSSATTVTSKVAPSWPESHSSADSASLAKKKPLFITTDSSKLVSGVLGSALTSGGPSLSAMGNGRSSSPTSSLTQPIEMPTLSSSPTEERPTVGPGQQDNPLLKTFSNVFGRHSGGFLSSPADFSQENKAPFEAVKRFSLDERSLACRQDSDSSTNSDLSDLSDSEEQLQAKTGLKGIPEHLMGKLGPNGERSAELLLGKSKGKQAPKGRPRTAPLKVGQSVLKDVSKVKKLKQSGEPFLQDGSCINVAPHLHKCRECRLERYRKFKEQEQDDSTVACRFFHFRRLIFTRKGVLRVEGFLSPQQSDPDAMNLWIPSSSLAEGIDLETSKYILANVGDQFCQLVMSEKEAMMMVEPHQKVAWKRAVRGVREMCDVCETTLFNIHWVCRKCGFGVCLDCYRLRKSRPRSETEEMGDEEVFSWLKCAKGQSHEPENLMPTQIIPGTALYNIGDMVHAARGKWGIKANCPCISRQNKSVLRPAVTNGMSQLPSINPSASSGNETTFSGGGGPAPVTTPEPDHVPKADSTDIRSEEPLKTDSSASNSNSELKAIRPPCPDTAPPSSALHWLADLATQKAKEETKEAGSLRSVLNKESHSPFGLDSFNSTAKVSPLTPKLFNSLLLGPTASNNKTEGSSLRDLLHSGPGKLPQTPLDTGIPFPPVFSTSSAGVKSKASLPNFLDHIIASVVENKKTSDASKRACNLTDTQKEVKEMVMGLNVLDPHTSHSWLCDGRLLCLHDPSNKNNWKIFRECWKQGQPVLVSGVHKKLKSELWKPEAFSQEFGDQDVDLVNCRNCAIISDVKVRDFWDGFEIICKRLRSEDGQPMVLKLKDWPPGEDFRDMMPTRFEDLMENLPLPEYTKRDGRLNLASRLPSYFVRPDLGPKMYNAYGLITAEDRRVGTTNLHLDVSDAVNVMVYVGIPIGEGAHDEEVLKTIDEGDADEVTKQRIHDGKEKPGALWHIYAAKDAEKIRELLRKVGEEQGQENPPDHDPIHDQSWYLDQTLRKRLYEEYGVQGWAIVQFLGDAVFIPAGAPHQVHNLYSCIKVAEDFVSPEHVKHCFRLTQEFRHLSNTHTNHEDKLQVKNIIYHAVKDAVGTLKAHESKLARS
Lysine-specific demethylase 6A, sequence (O15550 whole entry, the tested form may be a part): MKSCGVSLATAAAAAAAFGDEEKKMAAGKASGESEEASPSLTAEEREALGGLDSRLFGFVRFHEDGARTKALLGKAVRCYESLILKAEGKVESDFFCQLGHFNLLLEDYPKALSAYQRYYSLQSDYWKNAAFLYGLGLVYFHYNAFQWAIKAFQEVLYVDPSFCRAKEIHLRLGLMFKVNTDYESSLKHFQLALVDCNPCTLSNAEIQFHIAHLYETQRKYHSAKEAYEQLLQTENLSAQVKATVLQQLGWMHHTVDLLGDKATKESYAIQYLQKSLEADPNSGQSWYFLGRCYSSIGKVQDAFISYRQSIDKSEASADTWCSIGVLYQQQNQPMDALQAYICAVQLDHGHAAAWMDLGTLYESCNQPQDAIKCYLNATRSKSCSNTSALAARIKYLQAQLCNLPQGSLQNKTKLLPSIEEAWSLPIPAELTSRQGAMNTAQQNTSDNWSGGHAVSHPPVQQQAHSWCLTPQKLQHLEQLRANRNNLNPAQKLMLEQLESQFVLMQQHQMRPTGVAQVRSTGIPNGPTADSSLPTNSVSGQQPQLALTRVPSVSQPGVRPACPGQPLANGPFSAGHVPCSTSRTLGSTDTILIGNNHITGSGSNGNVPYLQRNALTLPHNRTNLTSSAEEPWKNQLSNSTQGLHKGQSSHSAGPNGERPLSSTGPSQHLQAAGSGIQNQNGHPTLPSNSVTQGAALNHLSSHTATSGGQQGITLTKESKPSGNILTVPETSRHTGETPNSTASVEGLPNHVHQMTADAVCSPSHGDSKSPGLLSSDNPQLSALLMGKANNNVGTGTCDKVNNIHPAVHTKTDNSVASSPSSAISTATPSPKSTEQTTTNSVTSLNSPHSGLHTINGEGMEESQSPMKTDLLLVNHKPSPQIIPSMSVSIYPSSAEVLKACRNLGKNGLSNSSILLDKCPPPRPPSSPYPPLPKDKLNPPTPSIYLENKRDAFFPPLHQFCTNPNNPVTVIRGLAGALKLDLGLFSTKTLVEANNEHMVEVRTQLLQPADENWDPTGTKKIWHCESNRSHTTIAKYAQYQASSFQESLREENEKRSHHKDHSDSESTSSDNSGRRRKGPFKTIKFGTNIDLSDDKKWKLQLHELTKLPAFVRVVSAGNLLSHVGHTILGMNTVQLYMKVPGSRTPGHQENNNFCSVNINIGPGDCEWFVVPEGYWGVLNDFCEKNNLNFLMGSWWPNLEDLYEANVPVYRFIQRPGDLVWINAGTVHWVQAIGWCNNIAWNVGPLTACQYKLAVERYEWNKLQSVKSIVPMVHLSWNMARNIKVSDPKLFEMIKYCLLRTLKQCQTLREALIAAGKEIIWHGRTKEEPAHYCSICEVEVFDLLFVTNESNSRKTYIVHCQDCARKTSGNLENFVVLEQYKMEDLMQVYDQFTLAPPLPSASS

Consider `O=C(O)CCNc1cc(N2CCc3ccccc3CC2)nc(-c2ccccn2)n1`, for which the IC50 – broadly, the concentration that gives 50% inhibition – in assay [1] is over 50 µM; in assay [2], 0.17 µM; in assay [3] it was 6.8 µM; in assay [4], 0.053 µM; in assay [5], 73 µM; in assay [6] it was over 75 µM.

For the molecule `CCOC(=O)CCNc1cc(N2CCc3ccccc3CC2)nc(-c2ccccn2)n1`, the IC50 came out at 7.5 µM in assay [1]; 3.1 µM in assay [7]; 9.7 µM in assay [2]; 6.6 µM in assay [4]; 3.8 µM in assay [5]; 6.9 µM in assay [6].
